According to ChEMBL document CHEMBL1201862, “PubChem BioAssay data set” (2004):
The source made the active and inactive calls.

Legend:
cells [1] = type: functional, cell-based
cells [2] = type: functional, cell-based; remark: listed apart in the source
[3] = molecular target: T1, Oxysterols receptor LXR-beta (Homo sapiens, UniProt P55055); type: functional, cell-based
T1 sequence (P55055 whole entry): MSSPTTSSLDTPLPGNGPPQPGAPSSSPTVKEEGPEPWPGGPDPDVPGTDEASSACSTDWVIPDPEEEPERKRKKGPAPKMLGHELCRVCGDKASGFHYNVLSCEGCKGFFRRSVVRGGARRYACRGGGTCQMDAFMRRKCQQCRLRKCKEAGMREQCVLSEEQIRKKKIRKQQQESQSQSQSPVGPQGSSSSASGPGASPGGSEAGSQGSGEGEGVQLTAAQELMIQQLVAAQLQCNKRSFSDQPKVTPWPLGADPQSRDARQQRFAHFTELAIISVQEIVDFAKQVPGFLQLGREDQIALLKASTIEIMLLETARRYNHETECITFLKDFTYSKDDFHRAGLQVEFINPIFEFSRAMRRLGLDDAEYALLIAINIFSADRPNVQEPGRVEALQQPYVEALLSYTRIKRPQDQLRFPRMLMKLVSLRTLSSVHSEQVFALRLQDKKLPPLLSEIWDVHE

Ion channel NompC = Ion channel NompC (Danio rerio, UniProt Q7T1G6); assay: Fluorescence counterscreen assay for TRPML3 agonists: dose response cell-based high-throughput screening assay to identify agonists of the transient receptor potential channel N1 (TRPN1). [Related pubchem assays: 1526, 1424, 1448 ]; type: functional
Sequence of Ion channel NompC (Q7T1G6 whole entry): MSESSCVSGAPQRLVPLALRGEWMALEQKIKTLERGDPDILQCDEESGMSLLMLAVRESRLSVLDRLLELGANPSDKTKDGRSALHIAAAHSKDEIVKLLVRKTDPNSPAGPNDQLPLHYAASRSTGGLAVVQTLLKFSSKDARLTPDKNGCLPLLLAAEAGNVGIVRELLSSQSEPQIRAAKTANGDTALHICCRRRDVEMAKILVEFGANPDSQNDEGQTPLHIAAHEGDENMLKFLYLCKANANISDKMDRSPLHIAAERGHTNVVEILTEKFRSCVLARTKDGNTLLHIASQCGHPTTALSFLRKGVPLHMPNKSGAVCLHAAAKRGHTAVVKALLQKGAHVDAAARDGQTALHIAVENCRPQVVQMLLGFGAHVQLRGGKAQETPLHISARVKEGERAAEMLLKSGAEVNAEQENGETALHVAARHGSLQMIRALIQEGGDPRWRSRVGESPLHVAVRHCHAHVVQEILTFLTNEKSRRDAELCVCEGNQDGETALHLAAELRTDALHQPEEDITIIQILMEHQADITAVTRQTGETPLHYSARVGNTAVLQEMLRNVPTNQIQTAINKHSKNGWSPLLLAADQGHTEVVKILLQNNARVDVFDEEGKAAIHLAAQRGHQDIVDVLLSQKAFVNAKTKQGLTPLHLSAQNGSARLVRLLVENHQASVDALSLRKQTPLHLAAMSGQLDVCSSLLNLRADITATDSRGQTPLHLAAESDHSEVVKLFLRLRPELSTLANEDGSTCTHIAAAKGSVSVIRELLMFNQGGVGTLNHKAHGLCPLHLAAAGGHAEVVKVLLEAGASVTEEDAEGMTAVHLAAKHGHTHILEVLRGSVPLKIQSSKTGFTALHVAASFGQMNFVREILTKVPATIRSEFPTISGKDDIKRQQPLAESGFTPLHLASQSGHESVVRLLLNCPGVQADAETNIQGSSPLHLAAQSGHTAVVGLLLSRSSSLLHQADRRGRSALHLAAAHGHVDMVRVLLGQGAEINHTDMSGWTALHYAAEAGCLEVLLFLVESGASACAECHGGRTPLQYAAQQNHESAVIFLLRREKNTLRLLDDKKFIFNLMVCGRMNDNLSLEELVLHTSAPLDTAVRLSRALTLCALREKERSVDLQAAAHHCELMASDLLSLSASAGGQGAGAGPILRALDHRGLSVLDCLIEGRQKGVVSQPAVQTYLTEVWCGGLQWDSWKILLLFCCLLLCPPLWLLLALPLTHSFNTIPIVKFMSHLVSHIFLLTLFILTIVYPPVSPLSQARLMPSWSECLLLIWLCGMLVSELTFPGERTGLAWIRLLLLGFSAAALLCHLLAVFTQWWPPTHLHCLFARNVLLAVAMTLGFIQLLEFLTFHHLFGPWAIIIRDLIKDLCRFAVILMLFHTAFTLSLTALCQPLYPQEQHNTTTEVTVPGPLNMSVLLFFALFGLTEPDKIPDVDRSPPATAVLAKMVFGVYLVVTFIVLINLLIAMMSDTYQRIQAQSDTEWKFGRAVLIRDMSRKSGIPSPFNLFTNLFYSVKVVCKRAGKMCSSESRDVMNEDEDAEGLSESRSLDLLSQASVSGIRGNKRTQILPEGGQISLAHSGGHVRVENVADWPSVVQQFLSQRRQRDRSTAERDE

[4] = reduction of Shn3 3'UTR firefly luciferase signal, dose response, Schnurri-3 inhibitor project, cell-based, Clone20 osteoblasts, cherry-pick, set 2 (AID 720490); type: functional;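 further: actives lower the luminescence signal as inhibitors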
Mucolipin-3 = molecular target: T2, Mucolipin-3 (Homo sapiens, UniProt Q8TDD5); assay: Dose response cell-based high-throughput screening assay for agonists of the transient receptor potential channel ML3 (TRPML3). [Related pubchem assays: 1526, 1424, 1448 ]; type: functional
T2 sequence (Q8TDD5 whole entry): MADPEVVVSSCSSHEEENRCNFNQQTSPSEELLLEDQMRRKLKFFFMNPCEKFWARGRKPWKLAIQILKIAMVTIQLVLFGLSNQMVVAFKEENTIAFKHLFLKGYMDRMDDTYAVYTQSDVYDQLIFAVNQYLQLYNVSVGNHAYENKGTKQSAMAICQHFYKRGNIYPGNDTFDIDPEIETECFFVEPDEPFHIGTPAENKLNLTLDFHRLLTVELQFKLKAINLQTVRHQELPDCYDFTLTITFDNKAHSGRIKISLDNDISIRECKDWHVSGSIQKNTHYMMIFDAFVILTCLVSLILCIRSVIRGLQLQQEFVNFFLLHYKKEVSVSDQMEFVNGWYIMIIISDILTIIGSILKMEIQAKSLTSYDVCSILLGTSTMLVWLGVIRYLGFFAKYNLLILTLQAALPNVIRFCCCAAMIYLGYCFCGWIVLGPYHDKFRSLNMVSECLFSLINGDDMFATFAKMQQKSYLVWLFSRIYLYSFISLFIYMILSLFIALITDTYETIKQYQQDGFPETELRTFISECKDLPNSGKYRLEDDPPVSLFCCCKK

[5] = Shn3 3'UTR reporter inhibitors, dose response, cell-based, Clone20 osteoblasts, firefly luciferase, cherry-picked (AID 624132); type: functional;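 further: firefly luciferase luminescence from reporter carrying the Shn3 3'UTR in osteoblasts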
[6] = HepG2 cell cytotoxicity, dose response, cytotoxicity control for Shn3 inhibitor project, CellTiter-Glo, cherry-picked (AID 624134); type: functional, cell-based
[7] = molecular target: Endoplasmic reticulum aminopeptidase 1 (Homo sapiens, UniProt Q9NZ08); assay: ERAP1 aminopeptidase inhibitors, dose response, biochemical, cherry-pick, set 2, plate reader (AID 743314)
Sequence of Endoplasmic reticulum aminopeptidase 1 (Q9NZ08 whole entry): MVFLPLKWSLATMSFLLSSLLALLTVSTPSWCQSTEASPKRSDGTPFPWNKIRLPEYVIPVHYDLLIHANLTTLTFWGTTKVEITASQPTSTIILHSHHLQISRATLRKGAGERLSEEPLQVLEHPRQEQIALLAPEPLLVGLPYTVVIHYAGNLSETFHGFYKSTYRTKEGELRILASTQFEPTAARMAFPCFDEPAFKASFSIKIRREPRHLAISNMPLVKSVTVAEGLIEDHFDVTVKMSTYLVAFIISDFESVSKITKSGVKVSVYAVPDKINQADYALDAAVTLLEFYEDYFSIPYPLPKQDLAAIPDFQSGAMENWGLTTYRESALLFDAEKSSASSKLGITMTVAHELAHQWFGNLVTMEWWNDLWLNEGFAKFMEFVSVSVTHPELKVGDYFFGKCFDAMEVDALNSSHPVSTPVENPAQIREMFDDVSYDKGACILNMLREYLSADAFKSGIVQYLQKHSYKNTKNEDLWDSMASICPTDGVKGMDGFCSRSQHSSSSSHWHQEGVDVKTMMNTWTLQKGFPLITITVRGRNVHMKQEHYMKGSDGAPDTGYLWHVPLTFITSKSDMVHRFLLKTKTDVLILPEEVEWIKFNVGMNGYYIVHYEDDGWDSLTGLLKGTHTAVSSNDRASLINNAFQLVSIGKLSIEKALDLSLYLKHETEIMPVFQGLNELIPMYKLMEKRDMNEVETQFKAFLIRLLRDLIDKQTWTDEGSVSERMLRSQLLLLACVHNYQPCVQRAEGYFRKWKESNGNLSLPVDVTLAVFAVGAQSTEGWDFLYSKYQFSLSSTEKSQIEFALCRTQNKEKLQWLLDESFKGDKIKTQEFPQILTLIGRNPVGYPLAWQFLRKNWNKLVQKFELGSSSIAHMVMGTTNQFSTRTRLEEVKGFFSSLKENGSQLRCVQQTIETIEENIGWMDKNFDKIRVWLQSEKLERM

cells [8] = assay: cells
[9] = molecular target: T1, Oxysterols receptor LXR-beta; type: functional, cell-based; remark: listed apart in the source
[10] = A549 cell cytotoxicity, dose response, cytotoxicity control, plate reader, cherry-pick, antagonist series (AID 743412); type: functional, cell-based
[11] = MC4R antagonists, dose response, counter-screen for LGR2 antagonist project, cell-based, plate reader, cherry pick (AID 743444); type: functional;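 further: transfected HEK 293 cells stimulated with alpha-MSH peptide; potency of inhibitors of the alpha-MSH evoked signal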
[12] = LGR2 antagonists, dose response, cell-based, HEK293, CRE-luciferase reporter, cherry pick, set 2 (AID 743343); type: functional;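 further: transfected cells were stimulated with diluted bursicon conditioned medium after compound addition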
[13] = HepG2 cell cytotoxicity, dose response, cytotoxicity control, plate reader, cherry-pick, antagonist series (AID 743416); type: functional, cell-based
[14] = cytotoxicity in OVCAR8 ovarian cancer cells, dose response, PAX8 project, cell-based, plate reader, dry powder samples (AID 743197); type: functional; conditions: OVCAR-8
[15] = A2780 ovarian cancer cell cytotoxicity, dose response, cytotoxicity control, plate reader, dry powder samples (AID 743046); type: functional, cell-based
[16] = non-specific cell cytotoxicity, dose response, cytotoxicity control for PAX8 inhibitor project, plate reader, dry powder samples (AID 743021); type: functional, cell-based
[17] = NIH:OVCAR-3 ovarian cancer cell cytotoxicity, dose response, PAX8 inhibitor project, plate reader, dry powder samples (AID 743044); type: functional, cell-based
[18] = IGROV1 ovarian cancer cell cytotoxicity, dose response, PAX8 inhibitor project, plate reader, dry powder samples (AID 743043); type: functional, cell-based; conditions: IGROV-1
Paired box protein Pax-8 = Paired box protein Pax-8 (Homo sapiens, UniProt Q06710); assay: inhibitors of PAX8-driven TPO luciferase reporter, dose response, RMG-I cells, cherry-pick (AID 687027); type: functional, cell-based;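 further: luciferase reporter driven by Pax8 target thyroperoxidase promoter measured by SteadyGlo luminescence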
Sequence of Paired box protein Pax-8 (Q06710 whole entry): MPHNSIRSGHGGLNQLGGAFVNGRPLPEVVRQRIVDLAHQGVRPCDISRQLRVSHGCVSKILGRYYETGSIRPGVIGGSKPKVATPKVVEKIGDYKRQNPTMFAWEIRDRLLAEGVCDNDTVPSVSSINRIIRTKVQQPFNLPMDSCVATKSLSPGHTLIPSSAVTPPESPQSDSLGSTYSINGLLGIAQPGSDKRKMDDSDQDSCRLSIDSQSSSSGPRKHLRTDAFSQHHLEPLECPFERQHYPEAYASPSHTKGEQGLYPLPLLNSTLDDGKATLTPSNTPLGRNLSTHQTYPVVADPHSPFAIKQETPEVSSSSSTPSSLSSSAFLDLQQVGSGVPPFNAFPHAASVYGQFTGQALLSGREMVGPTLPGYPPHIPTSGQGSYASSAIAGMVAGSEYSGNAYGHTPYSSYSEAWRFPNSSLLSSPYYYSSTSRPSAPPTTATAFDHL

[19] = Luminescence-based cell-based high throughput dose response assay to identify activators of the DAF-12 from the parasite S. stercoralis (ssDAF-12).; type: functional
[20] = molecular target: T1, Oxysterols receptor LXR-beta; assay: LXR agonists, Gal4 luciferase reporter, dose response, counter-screen for ssDAF-12 agonist project, cell-based, luminescence, HEK293, S. stercoralis campaign (AID 720737); type: functional; conditions: read-out: IC50 (the source's name)
[21] = molecular target: Disintegrin and metalloproteinase domain-containing protein 17 (Homo sapiens, UniProt P78536); assay: exosite inhibitors of ADAM17, dose response, biochemical (AID 743260)
Sequence of Disintegrin and metalloproteinase domain-containing protein 17 (P78536 whole entry, the tested form may be a part): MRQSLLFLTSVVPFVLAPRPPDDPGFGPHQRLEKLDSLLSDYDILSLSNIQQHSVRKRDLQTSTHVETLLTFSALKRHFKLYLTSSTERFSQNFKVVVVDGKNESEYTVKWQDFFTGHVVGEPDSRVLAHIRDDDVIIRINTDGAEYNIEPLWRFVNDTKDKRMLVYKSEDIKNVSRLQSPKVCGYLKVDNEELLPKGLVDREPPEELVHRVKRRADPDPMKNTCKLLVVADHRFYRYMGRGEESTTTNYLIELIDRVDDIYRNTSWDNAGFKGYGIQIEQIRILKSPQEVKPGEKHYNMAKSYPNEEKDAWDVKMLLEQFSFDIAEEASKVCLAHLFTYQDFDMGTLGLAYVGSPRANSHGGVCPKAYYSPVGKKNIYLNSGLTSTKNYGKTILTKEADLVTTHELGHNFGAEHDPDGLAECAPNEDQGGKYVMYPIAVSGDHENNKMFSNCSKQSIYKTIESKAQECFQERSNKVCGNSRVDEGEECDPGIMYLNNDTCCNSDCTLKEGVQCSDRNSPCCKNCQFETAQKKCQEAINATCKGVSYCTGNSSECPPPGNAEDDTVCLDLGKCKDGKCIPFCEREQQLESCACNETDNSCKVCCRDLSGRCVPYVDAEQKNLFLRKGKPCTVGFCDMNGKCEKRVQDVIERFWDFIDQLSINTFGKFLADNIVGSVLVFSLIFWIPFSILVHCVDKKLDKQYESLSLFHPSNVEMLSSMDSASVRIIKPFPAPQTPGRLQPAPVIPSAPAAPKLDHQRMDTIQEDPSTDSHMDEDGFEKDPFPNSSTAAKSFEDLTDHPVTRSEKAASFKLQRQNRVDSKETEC

[22] = ADAM10 protease inhibitors, dose response, selectivity assay for ADAM17 exosite inhibitor project, biochemical, FRET peptide substrate, recombinant human ADAM10 (AID 743259);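 further: ADAM10 enzyme cleaving a FRET peptide substrate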
[23] = ARNT/TACC3 interaction disruptors, potency, confirmation, biochemical, AlphaScreen, cherry-picked samples (AID 651703); type: functional, Homo sapiens;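 further: His-tagged ARNT PAS-B domain paired with GST-TACC3 E629A dimer coactivator fragment; potency of inhibitors that break up the complex and lower AlphaScreen signal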
Caspase-6 = Caspase-6 (Homo sapiens, UniProt P55212); assay: human caspase-6 inhibitors, dose response, biochemical, VEID-R110 fluorescence, cherry-pick (AID 720632)
Sequence of Caspase-6 (P55212 24-179 limits assumed): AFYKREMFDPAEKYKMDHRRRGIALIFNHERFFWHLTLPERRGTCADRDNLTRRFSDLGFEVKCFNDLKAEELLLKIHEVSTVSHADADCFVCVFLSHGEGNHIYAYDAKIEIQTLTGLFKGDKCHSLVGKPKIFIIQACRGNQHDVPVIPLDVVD
Sequence of Caspase-6 (P55212 194-293 limits assumed): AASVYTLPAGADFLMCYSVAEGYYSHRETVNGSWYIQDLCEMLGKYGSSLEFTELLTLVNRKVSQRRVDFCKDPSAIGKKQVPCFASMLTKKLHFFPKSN

[24] = molecular target: Luciferin 4-monooxygenase (Photinus pyralis, UniProt P08659); assay: firefly luciferase enzyme inhibitors, dose response, biochemical, luminescence (AID 1891)
Sequence of Luciferin 4-monooxygenase (P08659 whole entry): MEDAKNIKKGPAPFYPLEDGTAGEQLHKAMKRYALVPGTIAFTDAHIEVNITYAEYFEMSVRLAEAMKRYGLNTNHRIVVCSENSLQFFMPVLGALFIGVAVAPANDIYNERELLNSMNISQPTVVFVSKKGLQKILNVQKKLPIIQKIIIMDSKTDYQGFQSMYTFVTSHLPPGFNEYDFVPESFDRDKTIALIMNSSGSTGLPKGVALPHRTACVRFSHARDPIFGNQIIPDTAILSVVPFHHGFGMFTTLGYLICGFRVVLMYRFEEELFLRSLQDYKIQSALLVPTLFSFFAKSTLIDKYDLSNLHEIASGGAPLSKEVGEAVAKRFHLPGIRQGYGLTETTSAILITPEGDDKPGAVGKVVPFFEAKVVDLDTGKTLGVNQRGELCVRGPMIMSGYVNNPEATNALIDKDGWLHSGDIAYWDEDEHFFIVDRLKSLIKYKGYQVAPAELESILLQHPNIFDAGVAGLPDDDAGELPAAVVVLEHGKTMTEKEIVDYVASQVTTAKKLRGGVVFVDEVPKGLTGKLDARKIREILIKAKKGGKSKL

[25] = Luminescence Cell-Based Dose Confirmation HTS to Identify Inhibitors of Platelet Dense Granule Release. [Related pubchem assays: 1663 (Primary HTS), 1678 (Summary of Project)]; type: functional
[26] = molecular target: T3, Endoribonuclease toxin MazF (Escherichia coli K-12, UniProt P0AE70); assay: MazF toxin RNase activators, dose response, biochemical, fluorescence, single-stranded RNA substrate, uHTS hits (AID 588481); type: functional
T3 sequence (P0AE70 whole entry): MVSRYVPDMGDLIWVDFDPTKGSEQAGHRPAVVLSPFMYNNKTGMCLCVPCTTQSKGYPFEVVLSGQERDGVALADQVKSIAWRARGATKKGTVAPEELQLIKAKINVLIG

[27] = molecular target: T3, Endoribonuclease toxin MazF; assay: fluorescent RNA oligo signal without MazF, dose response, counter-screen for MazEF activator project, biochemical, fluorescence, single-stranded RNase substrate (AID 588502); type: functional
[28] = HepG2 cell cytotoxicity, dose response, cytotoxicity control, ATP luminescence, cherry-pick, activator set 2 (AID 1053143); type: functional, cell-based

Question: Which results are given for `OCc1ccc(N=Nc2ccccc2)cc1`?
Answer: EC50 (cells [1]): > 350 µM (not active); EC50 (cells [2]): 8.65 µM (active); EC50 [3]: > 67.5 µM (inactive)

Question: Which EC50 (Ion channel NompC) does the source give for `COc1ccc(NS(=O)(=O)c2ccc(OC)c(N(C)S(=O)(=O)c3ccc(Cl)cc3)c2)cc1` here?
Answer: > 29.9 µM (not active)

Question: And the AC50 [4]?
Answer: 3.54 µM (active)

Question: What about the EC50 (Mucolipin-3) of the same compound?
Answer: > 9.99 µM (not active)

Question: What about the AC50 [5] of the same compound?
Answer: 2.92 µM (active)

Question: What about the AC50 [6] of the same compound?
Answer: 38.7 µM (active)

Question: With `O=c1ccc2cc(OC3O[C@H](CO)[C@@H](O)[C@H](O)[C@H]3O)c(O)cc2o1` (some centres undefined) as the compound, how does the AC50 [7] read?
Answer: 2.24 µM (active)

Question: With `Cc1ccc(Nc2nc(-c3ccccc3)cs2)nc1` as the compound, how does the EC50 (cells [8]) read?
Answer: > 67.5 µM (inactive)

Question: And the EC50 [9]?
Answer: > 67.5 µM (inactive)

Question: What about the AC50 [10] of the same compound?
Answer: 37.4 µM (active)

Question: And the AC50 [11]?
Answer: 13.3 µM (active)

Question: What about the AC50 [12] of the same compound?
Answer: 8.03 µM (active)

Question: What about the AC50 [13] of the same compound?
Answer: > 52 µM (inactive)

Question: Which AC50 [14] does the source give for `O=C(C1CCC1)N1CC(=O)N2[C@H](CO)[C@H](c3ccc(C#CCc4ccccc4)cc3)[C@H]2C1` here?
Answer: 20.4 µM (active)

Question: And the AC50 [15]?
Answer: 0.324 µM (active)

Question: And the AC50 [16]?
Answer: 48 µM (active)

Question: And the AC50 [17]?
Answer: 11.4 µM (active)

Question: What about the AC50 [18] of the same compound?
Answer: 42.6 µM (active)

Question: And the AC50 (Paired box protein Pax-8)?
Answer: 24.3 µM (active)

Question: Which results are given for `Oc1ccccc1-c1cc(-c2ccc(Cl)cc2)[nH]n1`?
Answer: IC50 [19]: > 67.5 µM (inactive); EC50 [3]: > 67.5 µM (inactive); EC50 [20]: > 67.5 µM (inactive)

Question: With `Cc1ccccc1-c1nnn(Cc2ccc(F)cc2Cl)n1` as the compound, how does the IC50 [21] read?
Answer: > 69.5 µM (inactive)

Question: And the IC50 [22]?
Answer: > 69.5 µM (inactive)

Question: With `COc1ccc(-c2n[nH]c(=S)n2-c2ccc(Br)cc2)cc1OC` as the compound, how does the IC50 [21] read?
Answer: 41.6 µM (inactive)

Question: For `CCOC(=O)C1CCN(C(=O)COC(=O)c2ccc([N+](=O)[O-])o2)CC1`, which AC50 [23] is on record?
Answer: 88.2 µM (active)

Question: And the AC50 (Caspase-6)?
Answer: 18.5 µM (active)

Question: For `COc1ccc(-c2nnc(S)n2-c2ccc(Br)cc2)cc1OC`, which IC50 [22] is on record?
Answer: > 69.5 µM (inactive)

Question: What does the source list for `Oc1c(N=Nc2ccccc2)sc2ccccc12`?
Answer: EC50 [24]: 1.26 µM (active); EC50 [25]: 15 µM (active); IC50 [19]: > 67.5 µM (inactive); EC50 (cells [8]): > 67.5 µM (inactive); EC50 [9]: > 67.5 µM (inactive); EC50 [20]: > 67.5 µM (inactive)

Question: With `Nc1c(C(=O)c2ccccc2)sc2nsc(SCCN3CCOCC3)c12` as the compound, how does the EC50 [26] read?
Answer: > 99 µM (inactive)

Question: What about the EC50 [27] of the same compound?
Answer: > 99 µM (inactive)

Question: And the AC50 [28]?
Answer: 51.6 µM (active)

Question: Which AC50 [14] does the source give for `COc1ccc(CN(C)C[C@@H]2OCCCC[C@H](C)Oc3ccc(NC(=O)Nc4ccc(C(F)(F)F)cc4)cc3C(=O)N([C@@H](C)CO)C[C@H]2C)cc1` here?
Answer: 25.2 µM (active)

Question: What about the AC50 [15] of the same compound?
Answer: 21.9 µM (active)

Question: And the AC50 [16]?
Answer: 63.1 µM (active)

Question: And the AC50 [17]?
Answer: 2.91 µM (active)

Question: What about the AC50 (Paired box protein Pax-8) of the same compound?
Answer: 14.6 µM (active)
